Values quoted from earlier work as cited in patent publication US7087617B2, “Substituted pyrimidine derivatives” (Pfizer Inc., priority 2003, dated 2006).

Details: for effect on the "anxiogenic" effects / actions of CRF in the conflict test: rats, CRF-induced effects

| SMILES | effect on the "anxiogenic" effects / actions of CRF in the conflict test | behavioral activity alone in the operant conflict test (compound alone, without CRF) |
| --- | --- | --- |
| CNC(=O)c1cc2c(cn1)[nH]c1ccccc12 [FG 7142] | enhanced the actions of CRF | – |
| CCOC(=O)c1ncn2c1CN(C)C(=O)c1cc(F)ccc1-2 [Ro 15-1788] | reversed the effects of CRF in a dose-dependent manner | without behavioral activity alone |
